Target: T1, 12-lipoxygenase (Sus scrofa, UniProt P16469)
T1 construct: porcine Leukocyte cytosol in buffer; from tissue; host or cells: porcine leukocyte cytosol
T1 sequence (P16469 1-663): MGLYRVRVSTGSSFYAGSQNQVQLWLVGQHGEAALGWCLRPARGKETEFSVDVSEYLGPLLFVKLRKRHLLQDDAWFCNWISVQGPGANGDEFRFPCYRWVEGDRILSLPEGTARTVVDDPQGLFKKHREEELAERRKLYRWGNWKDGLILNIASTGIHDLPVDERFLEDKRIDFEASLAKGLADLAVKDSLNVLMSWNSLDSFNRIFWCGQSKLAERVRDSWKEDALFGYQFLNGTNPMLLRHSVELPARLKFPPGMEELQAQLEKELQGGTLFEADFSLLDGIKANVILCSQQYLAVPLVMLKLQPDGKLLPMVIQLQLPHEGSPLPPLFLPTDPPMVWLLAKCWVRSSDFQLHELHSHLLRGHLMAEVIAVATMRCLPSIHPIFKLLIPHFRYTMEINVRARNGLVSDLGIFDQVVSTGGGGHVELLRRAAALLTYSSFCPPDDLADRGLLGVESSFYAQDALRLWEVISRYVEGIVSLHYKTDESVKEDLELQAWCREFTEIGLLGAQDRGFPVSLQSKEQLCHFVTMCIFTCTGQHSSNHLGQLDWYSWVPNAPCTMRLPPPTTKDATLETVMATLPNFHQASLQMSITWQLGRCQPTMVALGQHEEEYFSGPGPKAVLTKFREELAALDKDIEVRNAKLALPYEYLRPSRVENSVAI
Experiment: 12-lipoxygenase inhibition in porcine leukocyte cytosol ([1-14C] arachidonic acid conversion to 12-HETE, TLC)
Assay type: biochemical
Conditions: porcine leukocyte cytosol 0.075 mg/mL, pH 8.0, 5 min preincubation, 5 μM arachidonic acid, 15 min at 37° C.
Procedure: The standard assay procedure is as follows:
Compounds of the present invention were added in 3 μL of DMSO at an appropriate concentration to porcine Leukocyte cytosol in buffer (final protein concentration of 0.075 mg/mL in 0.1M HEPES, 2 mM caCl2, 1 mM MgCl2, pH=8.0) and preincubated for 5 min at 37° C. [1-^14 C] arachidonic acid was added (final concentration of 5 μM) and the reactions were incubated for 15 min at 37° C. and terminated by the addition of HCl. Total reaction volume was 100 μL. Assays also included reduced glutathione in the assay at 25 μM or following the assay at 1 mM and/or cold carrier 12-HETE and arachidonic acid added at the end of the incubation at concentrations of 5 and 100 μM, respectively. Sample was extracted with water-saturated ethyl acetate and the extracts were spotted onto TLC plates. The plates were developed with dichloromethane/ethyl acetate/acetic acid in a ratio of 70:30:1. Under these conditions, the Rf's of 12-HETE and arachidonic acid are 0.30 and 0.45 , respectively. The percentage conversion to 12-HETE was calculated from the percentage of the total ^14 C on the TLC plate that coelutes with a standard of 12-HETE.

Row | SMILES | IC50
1 | CCCCCCCC[C@H]1C[C@H](c2ccccc2)CC(=O)N1O (relative stereo) [1(a), trans-1-hydroxy-6-octyl-4-phenylpiperidin-2-one] | 150 nM
2 | CCCCCCCCCCCC[C@@H]1[C@H](c2ccccc2)CCC(=O)N1O (relative stereo) [1(aa), cis-6-Dodecyl-1-hydroxy-5-phenyl-piperidin-2-one] | 800 nM
3 | CCCCCCCCCC[C@@H]1C[C@H](c2ccccc2)CC(=O)N1O (relative stereo) [1(b), cis-1-hydroxy-6-decyl-4-phenyl-piperidin-2-one] | 600 nM
4 | CCCCCCCCCCCCCC[C@H]1[C@H](c2ccccc2)CCC(=O)N1O (relative stereo) [1(bb), trans-1-Hydroxy-5-phenyl-6-tetradecyl-piperidin-2-one] | 2000 nM
5 | CCCCCCCCCC[C@H]1C[C@H](c2ccccc2)CC(=O)N1O (relative stereo) [1(c), trans-1-hydroxy-6-decyl-4-phenyl-piperidin-2-one] | 700 nM
6 | CCCCCCCCCCCCCC[C@@H]1[C@H](c2ccccc2)CCC(=O)N1O (relative stereo) [1(cc), cis-1-Hydroxy-5-phenyl-6-tetradecyl-piperidin-2-one] | 740 nM
7 | CCCCCCCCCCCC[C@@H]1C[C@H](c2ccccc2)CC(=O)N1O (relative stereo) [1(d), cis-1-hydroxy-6-dodecyl-4-phenyl-piperidine-2-one] | 300 nM
8 | O=C1C[C@@H](CCCc2ccccc2)C[C@@H](c2ccccc2)N1O (relative stereo) [1(ddd), cis-1-Hydroxy-6-phenyl-4-(3-phenylpropyl)-piperidin-2-one] | 4200 nM
9 | CCCCCCCCCCCC[C@H]1C[C@H](c2ccccc2)CC(=O)N1O (relative stereo) [1(e), trans-1-hydroxy-6-dodecyl-4-phenylpiperidin-2-one] | 500 nM
10 | O=C1C[C@@H](CCCc2ccccc2)C[C@H](c2ccccc2)N1O (relative stereo) [1(eee), trans-1-Hydroxy-6-phenyl-4-(3-phenylpropyl)-piperidin-2-one] | 3000 nM
11 | CCCCCCCCCCCCCC[C@@H]1C[C@H](c2ccccc2)CC(=O)N1O (relative stereo) [1(f), cis-1-hydroxy-4-phenyl-6-tetradecyl-piperidin-2-one] | 300 nM
12 | CCCCCCCCCCCCCC[C@H]1C[C@H](c2ccccc2)CC(=O)N1O (relative stereo) [1(g), trans-1-hydroxy-4-phenyl-6-tetradecyl-piperidine-2-one] | 400 nM
13 | CCCCCCCCCCCCCCCCCC[C@@H]1C[C@H](c2ccccc2)CC(=O)N1O (relative stereo) [1(h), cis-1-hydroxy-6-octadecyl-4-phenylpiperidin-2-one] | > 10000 nM
14 | CCCCCCCCCCCCCCCCCC[C@H]1C[C@H](c2ccccc2)CC(=O)N1O (relative stereo) [1(i), trans-1-hydroxy-6-octadecyl-4-phenylpiperidin-2-one] | 10000 nM
15 | O=C1C[C@@H](c2ccccc2)C[C@@H](CCCc2ccccc2)N1O (relative stereo) [1(j), cis-1-hydroxy-4-phenyl-6-(3-phenylpropyl)-piperidin-2-one] | 280 nM
16 | CCCCCCCCCC[C@@H]1C[C@H](Cc2ccccc2)CC(=O)N1O (relative stereo) [1(jj), cis-4-Benzyl-6-decyl-1-hydroxy-piperidin-2-one] | 250 nM
17 | O=C1C[C@@H](c2ccccc2)C[C@H](CCCc2ccccc2)N1O (relative stereo) [1(k), trans-1-hydroxy-4-phenyl-6-(3-phenylpropyl)-piperidin-2-one] | 390 nM
18 | CCCCCCCCCC[C@H]1C[C@H](Cc2ccccc2)CC(=O)N1O (relative stereo) [1(kk), trans-4-Benzyl-6-decyl-1-hydroxy-piperidin-2-one] | 400 nM
19 | O=C1C[C@H](c2ccccc2)C[C@H](CCCCCCCc2ccccc2)N1O (relative stereo) [1(l), cis-1-hydroxy-4-phenyl-6-(7-pheylheptyl)-iperidin-2-one] | 500 nM
20 | CCCCCCCCCCCC[C@@H]1C[C@H](Cc2ccccc2)CC(=O)N1O (relative stereo) [1(ll), cis-4-Benzyl-6-dodecyl-1-hydroxy-piperidin-2-one] | 800 nM

Row | SMILES | IC50
21 | O=C1C[C@@H](c2ccccc2)C[C@H](CCCCCCCc2ccccc2)N1O (relative stereo) [1(m), trans-1-hydroxy-4-phenyl-6-(7-phenylheptyl)-piperidin-2-one] | 200 nM
22 | CCCCCCCCCCCC[C@H]1C[C@H](Cc2ccccc2)CC(=O)N1O (relative stereo) [1(mm), trans-4-Benzyl-6-dodecyl-1-hydroxy-piperidin-2-one] | 800 nM
23 | CCCCCCCC[C@@H]1C[C@H](c2cccc3ccccc23)CC(=O)N1O (relative stereo) [1(n), cis-1-hydroxy-4-(1-naphthyl)-6-octylpiperidin-2-one] | 700 nM
24 | CCCCCCCCCCCCCC[C@@H]1C[C@H](Cc2ccccc2)CC(=O)N1O (relative stereo) [1(nn), cis-4-Benzyl-1-hydroxy-6-tetradecyl-piperidin-2-one] | 400 nM
25 | CCCCCCCC[C@H]1C[C@H](c2cccc3ccccc23)CC(=O)N1O (relative stereo) [1(o), trans-1-hydroxy-4-(1-naphthyl)-6-octylpiperidin-2-one] | 130 nM
26 | CCCCCCCCCCCCCC[C@H]1C[C@H](Cc2ccccc2)CC(=O)N1O (relative stereo) [1(oo), trans-4-Benzyl-1-hydroxy-6-tetradecyl-piperidin-2-one] | 700 nM
27 | CCCCCCCC[C@@H]1C[C@H](c2ccc3ccccc3c2)CC(=O)N1O (relative stereo) [1(p), cis-1-hydroxy-4-(2-naphthyl)-6-octylpiperidin-2-one] | 90 nM
28 | CCCCCCCC[C@H]1C[C@H](c2ccc3ccccc3c2)CC(=O)N1O (relative stereo) [1(q), trans-1-hydroxy-4-(2-naphthyl)-6-octylpiperidin-2-one] | 100 nM
29 | CCCCCCCCCCCC[C@@H]1C(=O)N(O)CC[C@@H]1c1ccccc1 (relative stereo) [1(r), cis-1-hydroxy-4-phenyl-3-dodecylpiperidin-2-one] | 800 nM
30 | CCCCCCCCCCCC[C@@H]1C(=O)N(O)CC[C@H]1c1ccccc1 (relative stereo) [1(s), trans-1-hydroxy-4-phenyl-3-dodecylpiperidin-2-one] | 700 nM
31 | CCCCCCCCC[C@@H]1CC(=O)N(O)C[C@@H]1c1ccccc1 (relative stereo) [1(ss), cis-1-Hydroxy-4-nonyl-5-phenyl-piperidin-2-one] | 400 nM
32 | O=C1[C@@H](CCCc2ccccc2)[C@@H](c2ccccc2)CCN1O (relative stereo) [1(t), cis-1-hydroxy-4-phenyl-3-(3-phenylpropyl)-piperidin-2-one] | 900 nM
33 | CCCCCCCCC[C@@H]1CC(=O)N(O)C[C@H]1c1ccccc1 (relative stereo) [1(tt), trans-1-Hydroxy-4-nonyl-5-phenyl-piperidin-2-one] | 600 nM
34 | O=C1[C@@H](CCCc2ccccc2)[C@H](c2ccccc2)CCN1O (relative stereo) [1(u), trans-1-hydroxy-4-phenyl-3-(3-phenylpropyl)-piperidin-2-one] | 1500 nM
35 | CCCCCCCCCC[C@@H]1CC[C@H](c2ccccc2)C(=O)N1O (relative stereo) [1(v), cis-6-Decyl-1-hydroxy-3-phenyl-piperidin-2-one] | 1000 nM
36 | O=C1CC[C@@H](c2ccccc2)[C@@H](CCCc2ccccc2)N1O (relative stereo) [1(ww), cis-1-Hydroxy-5-phenyl-6-(3-phenylpropyl)-piperidin-2-one] | 900 nM
37 | CCCCCCCCCC[C@@H]1[C@H](c2ccccc2)CCC(=O)N1O (relative stereo) [1(x), cis-6-Decyl-1-hydroxy-5-phenyl-piperidin-2-one] | 200 nM
38 | O=C1CC[C@@H](c2ccccc2)[C@H](CCCc2ccccc2)N1O (relative stereo) [1(xx), trans-1-Hydroxy-5-phenyl-6-(3-phenylpropyl)-piperidin-2-one] | 1000 nM
39 | CCCCCCCCCC[C@@H]1[C@@H](c2ccccc2)CCC(=O)N1O (relative stereo) [1(y), trans-6-Decyl-hydroxy-5-phenyl-piperidin-2-one] | 300 nM

Source: patent publication US5292884A, “Cyclic hydroxamic acids” (Biomide Investment Limited Partnership, priority 1992, dated 1994)
